From patent US20070004766A1, “Methods for relaxation of smooth muscle contractions using Trospium” (priority 2005, published 2007)

Columns and labels:
[1] = system: bladder smooth muscle strips; experiment: Antimuscarinic activity on bladder smooth muscle strips (carbachol-induced contractions); assay type: cell-based, guinea pigs; details: Cavia porcellus, read-out: KB, inhibition of carbachol-induced contractions
[2] = biological target: T1, human recombinant muscarinic receptor M-3 (Homo sapiens, UniProt P20309); experiment: biochemical; assay type: binding
T1 construct: expressed in transfected cells; host or cells: Sf9 insect cells (membranes)
T1 sequence (P20309 whole entry): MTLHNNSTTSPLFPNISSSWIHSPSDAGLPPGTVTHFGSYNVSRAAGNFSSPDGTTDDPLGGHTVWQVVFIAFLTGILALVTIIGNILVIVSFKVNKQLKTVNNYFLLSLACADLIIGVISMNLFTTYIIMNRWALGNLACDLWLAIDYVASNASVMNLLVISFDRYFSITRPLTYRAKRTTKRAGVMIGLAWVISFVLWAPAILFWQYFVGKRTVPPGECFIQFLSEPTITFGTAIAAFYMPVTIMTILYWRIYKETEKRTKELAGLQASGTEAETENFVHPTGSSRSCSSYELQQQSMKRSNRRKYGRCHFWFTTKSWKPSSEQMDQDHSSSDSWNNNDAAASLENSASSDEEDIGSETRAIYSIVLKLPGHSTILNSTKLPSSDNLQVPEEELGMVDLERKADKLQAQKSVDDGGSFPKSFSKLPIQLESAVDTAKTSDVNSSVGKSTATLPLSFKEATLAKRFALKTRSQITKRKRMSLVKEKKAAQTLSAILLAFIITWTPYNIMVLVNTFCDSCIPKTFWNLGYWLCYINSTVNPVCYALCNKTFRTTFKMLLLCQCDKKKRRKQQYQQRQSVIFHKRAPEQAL

Compound | Kb [1] | Ki [2]
Cc1ccc(O)c([C@H](CCN(C(C)C)C(C)C)c2ccccc2)c1 [Tolterodine] | 1.5 to 5.5 nM | 
O=C(OC1CC2CCC(C1)[N+]21CCCC1)C(O)(c1ccccc1)c1ccccc1 (stereo not drawn) [Trospium, 3α-hydroxy-spiro[1αH,5αH-nortropane-8,1′-pyrrolidinium]chloride benzilate] | 1.5 to 5.5 nM | 0.501 nM
